Laboratory results taken from patent US12576150B2, “CD4+ T cells expressing IL-10 and chimeric antigen receptors and uses thereof” (TR1X, INC., priority 2021, dated 2026).

System: NLPR3 inflammasome, LPS activated monocytes
Assay: IL-1β production by LPS activated monocytes
Format: cell-based, human
Conditions: with anti-IL-10 receptor antibody
Description: CD14^+ monocytes were isolated from PBMC using a pan monocyte isolation kit (Miltenyi Biotec, Bergisch Gladbach, Germany) and plated in 96 flat microtiter wells at 2×10^5/200 μL per well and cultured in the presence of LPS. The cells were cultured further in the presence of Z-YVADfmk (20 μM), MMC950 (10 μM), IL-10 (10 ng/ml) or various concentrations of single- or pooled donor […] cell supernatants as summarized in Table 1.
The supernatants were obtained from single- or pooled donor CD4^IL-10 cells activated for 72 hours with a combination of CD3 and CD28 antibodies as described previously. (Andolfi et al. 2012, Mol. Therapy Vol. 20, 1778-1790, Locafaro et al. Mol Ther 2017, 25, 2254) In some cases (FIGS. 35C and 35D), the monocytes were incubated with LPS in combination with the NLPR3 inflammasome activator nigericin (“NIG”) which was added during the last 30 minutes of the LPS activation.

| Structure (SMILES) | effect of anti-IL-10 receptor antibody on the inhibition of IL-1β production |
| --- | --- |
| CC(C)(O)c1coc(S(=O)(=O)NC(=O)Nc2c3c(cc4c2CCC4)CCC3)c1 [MCC950] | no effect |
| COC(=O)C[C@H](NC(=O)[C@H](C)NC(=O)[C@@H](NC(=O)[C@H](Cc1ccc(O)cc1)NC(=O)OCc1ccccc1)C(C)C)C(=O)CF [Z-YVADfmk] | no effect |
